In publication PMC5722318, “Absence of anti-hypocretin receptor 2 autoantibodies in post pandemrix narcolepsy cases” (PLoS ONE, 2017):
Like-named read-outs stand apart in the source and are kept apart here.

System: DQ0602
Assay type: binding, human
Settings: for % Read #1 / Read #1: replicate 1; for % Average: mean of two reads; for % Read #2 / Read #2: replicate 2; for Average: mean of the two raw reads; for Read #1 / Read #2: raw signal read
[1] = % of Bio-EBV binding, first assay (02/04/2016, 07/15/2016 or 08/11/2016, by peptide)
[2] = % of Bio-EBV binding, repeat assay (07/19/2016, 07/18/2016 or 08/12/2016, by peptide)
[3] = first assay (02/04/2016, 07/15/2016 or 08/11/2016, by peptide)
[4] = repeat assay (07/19/2016, 07/18/2016 or 08/12/2016, by peptide)

Sequence: HDSDKGVTAACPH [HA143-155 146D, synthetic 13-mer hemagglutinin peptide containing mutated 146D]
- Average (two assays): 86.9741%
- % Read #1 (% of Bio-EBV binding (Bio-EBV average = 100), first assay (02/04/2016, 07/15/2016 or 08/11/2016, by peptide)): 75.8456%
- % Average [1]: 83.2638%
- % Average [2]: 90.6844%
- % Read #1 [2]: 90.6154%
- % Read #2 [1]: 90.682%
- % Read #2 [2]: 90.7533%
- Average [3]: 15669
- Average [4]: 15132.5
- Read #1 (first assay (02/04/2016, 07/15/2016 or 08/11/2016, by peptide), competition against Bio-EBV epitope): 14273
- Read #1 [4]: 15121
- Read #2 [3]: 17065
- Read #2 [4]: 15144
